Laboratory results from patent US10689377B2 (Mirati Therapeutics, Inc., priority 2017, dated 2020).

Target: KRas G12C (Homo sapiens, UniProt P01116, G12C)
Test: Cellular inhibition of KRas G12C measured by Phospho-ERK in NCI-H358 cells
Format: cell-based
Settings: pERK(Thr202/Tyr204) normalized with GAPDH, NCI-H358 cells, 3 hours; read-out: IC50
Method in brief: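 Readout is pERK(Thr202/Tyr204) immunofluorescence normalized to GAPDH, expressed as percent of DMSO control and fitted with a 4-parameter curve for IC50. Attached NCI-H358 cells received compound for 3 hours in 0.5% DMSO, followed by fixation and methanol permeabilization.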

KRas G12C, sequence (P01116 1-188 isoform P01116-2 G12C): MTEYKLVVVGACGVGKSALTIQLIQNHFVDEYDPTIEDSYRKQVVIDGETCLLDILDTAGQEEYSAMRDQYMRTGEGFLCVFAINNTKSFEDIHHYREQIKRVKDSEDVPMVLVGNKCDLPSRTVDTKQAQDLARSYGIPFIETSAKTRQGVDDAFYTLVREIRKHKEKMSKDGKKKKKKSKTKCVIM

| Structure (SMILES) | IC50 [nM] |
| --- | --- |
| C=C(F)C(=O)N1CCN(c2nc(OCc3ccccn3)nc3c2CCN(c2cccc4cccc(C)c24)C3)C[C@@H]1CC#N [Example 605, 2-[(2S)-1-(2-fluoroprop-2-enoyl)-4-[7-(8-methyl-1-naphthyl)-2-(2-pyridylmethoxy)-6,8-dihydro-5H-pyrido[3,4-d]pyrimidin-4-yl]piperazin-2-yl]acetonitrile] | > 1000 |
| C=CC(=O)N1CCN(c2nc(OC[C@@H]3CCCN3C)nc3c2CCN(c2cccc(F)c2F)C3)C[C@@H]1CC#N [Example 407, 2-((S)-1-acryloyl-4-(7-(2,3-difluorophenyl)-2-(((S)-1-methylpyrrolidin-2-yl)methoxy)-5,6,7,8-tetrahydropyrido[3,4-d]pyrimidin-4-yl)piperazin-2-yl)acetonitrile] | > 1000 |
| C=CC(=O)N1CCN(c2nc(OC[C@@H]3CCCN3C)nc3c2CCN(c2cccc4ncccc24)C3)CC1CC#N (stereo partly drawn) [Example 264, 2-[4-[2-[[(2S)-1-methylpyrrolidin-2-yl]methoxy]-7-(5-quinolyl)-6,8-dihydro-5H-pyrido[3,4-d]pyrimidin-4-yl]-1-prop-2-enoyl-piperazin-2-yl]acetonitrile] | > 1000 |
| C=CC(=O)N1CCN(c2nc(OCC3COCCN3C)nc3c2CCN(c2cc(O)cc4ccccc24)C3)CC1 (centres unmarked) [Example 194, 1-(4-(7-(3-hydroxynaphthalen-1-yl)-2-((4-methylmorpholin-3-yl)methoxy)-5,6,7,8-tetrahydropyrido[3,4-d]pyrimidin-4-yl)piperazin-1-yl)prop-2-en-1-one] | > 1000 |
| C=CC(=O)N1CCN(c2nc(OCCN3CCC[C@H](OC)C3)nc3c2CCN(c2cc(O)cc4ccccc24)C3)CC1 [Example 98, (S)-1-(4-(7-(3-hydroxynaphthalen-1-yl)-2-(2-(3-methoxypiperidin-1-yl)ethoxy)-5,6,7,8-tetrahydropyrido[3,4-d]pyrimidin-4-yl)piperazin-1-yl)prop-2-en-1-one] | > 1000 |
| C=C(F)C(=O)N1CCN(c2nc(OCC3CCCC3)nc3c2CCN(c2cccc4cccc(C)c24)C3)C[C@@H]1CC#N [Example 603, 2-[(2S)-4-[2-(cyclopentylmethoxy)-7-(8-methyl-1-naphthyl)-6,8-dihydro-5H-pyrido[3,4-d]pyrimidin-4-yl]-1-(2-fluoroprop-2-enoyl)piperazin-2-yl]acetonitrile] | > 1000 |
| C=CC(=O)N1CCN(c2ncnc3c2CCN(C(CO)c2ccccc2)C3)CC1 (centres unmarked) [Example 71, 1-(4-(7-(2-hydroxy-1-phenylethyl)-5,6,7,8-tetrahydropyrido[3,4-d]pyrimidin-4-yl)piperazin-1-yl)prop-2-en-1-one] | > 1000 |
| C=CC(=O)N1CCN(c2nc(N3CCN(C)CC3)nc3c2CCN(c2cc(O)cc4ccccc24)C3)CC1 [Example 12, 1-(4-(7-(3-hydroxynaphthalen-1-yl)-2-(4-methylpiperazin-1-yl)-5,6,7,8-tetrahydropyrido[3,4-d]pyrimidin-4-yl)piperazin-1-yl)prop-2-en-1-one] | > 1000 |
| C=CC(=O)N1CCN(c2nc(OC[C@@H]3CCCN3C)nc3c2CCN(c2c(C)c(C)cc4[nH]ccc24)C3)CC1 [Example 457, 1-[4-[7-(5,6-dimethyl-1H-indol-4-yl)-2-[[(2S)-1-methylpyrrolidin-2-yl]methoxy]-6,8-dihydro-5H-pyrido[3,4-d]pyrimidin-4-yl]piperazin-1-yl]prop-2-en-1-one] | 0.1 to 1000 |
| C=CC(=O)N1CCN(c2nc(OC[C@@H]3CCCC(=O)N3)nc3c2CCN(c2cc(O)cc4ccccc24)C3)CC1 (single isomer, unassigned) [Example 61] | > 1000 |
| C=CC(=O)N1CCN(c2nc(OC[C@@H]3CCCN3C)nc3c2CCN(c2ccccc2C(F)(F)F)C3)C[C@@H]1CC#N [Example 379, 2-((S)-1-acryloyl-4-(2-(((S)-1-methylpyrrolidin-2-yl)methoxy)-7-(2-(trifluoromethyl)phenyl)-5,6,7,8-tetrahydropyrido[3,4-d]pyrimidin-4-yl)piperazin-2-yl)acetonitrile] | 0.1 to 1000 |
| Cc1cccc2cccc(N3CCc4c(nc(OCCC(=O)N(C)C)nc4N4CCN(C(=O)/C=C/CN(C)C)[C@@H](CC#N)C4)C3)c12 [Example 463, (S,E)-3-((4-(3-(cyanomethyl)-4-(4-(dimethylamino)but-2-enoyl)piperazin-1-yl)-7-(8-methylnaphthalen-1-yl)-5,6,7,8-tetrahydropyrido[3,4-d]pyrimidin-2-yl)oxy)-N,N-dimethylpropanamide] | 0.1 to 1000 |
| C=CC(=O)N1CCN(c2nc(OC[C@H]3C[C@@H](O)CN3C)nc3c2CCN(c2cccc(F)c2C(F)(F)F)C3)CC1CC#N (stereo partly drawn) [Example 416, 2-(1-acryloyl-4-(7-(3-fluoro-2-(trifluoromethyl)phenyl)-2-(((2R,4R)-4-hydroxy-1-methylpyrrolidin-2-yl)methoxy)-5,6,7,8-tetrahydropyrido[3,4-d]pyrimidin-4-yl)piperazin-2-yl)acetonitrile] | 0.1 to 1000 |
| C=CC(=O)N1CCN(c2nc(OC[C@@H]3CCCN3C)nc3c2CCN(c2cccc4ccc(F)cc24)C3)CC1CC#N (some centres unmarked) [Example 302] | 0.1 to 1000 |
| C=CC(=O)N1CCN(c2nc(OC[C@@H]3CCCN3C)nc3c2CCN(c2cccc4ccn(C)c24)C3)C[C@@H]1CC#N [Example 436, 2-((S)-1-acryloyl-4-(7-(1-methyl-1H-indol-7-yl)-2-(((S)-1-methylpyrrolidin-2-yl)methoxy)-5,6,7,8-tetrahydropyrido[3,4-d]pyrimidin-4-yl)piperazin-2-yl)acetonitrile] | 0.1 to 1000 |
| C=CC(=O)N1CCN(c2nc(OCCCN3C[C@H]4C[C@@H]3CO4)nc3c2CCN(c2ccccc2C(F)(F)F)C3)CC1CC#N (stereo partly drawn) [Example 280, 2-(4-(2-(3-((1R,4R)-2-oxa-5-azabicyclo[2.2.1]heptan-5-yl)propoxy)-7-(2-(trifluoromethyl)phenyl)-5,6,7,8-tetrahydropyrido [3,4-d]pyrimidin-4-yl)-1-acryloylpiperazin-2-yl)acetonitrile] | 0.1 to 1000 |
| C=CC(=O)N1CCN(c2nc(OC[C@@H]3CCCN3C)nc3c2CCN(c2cc(F)ccc2OC(F)(F)F)C3)CC1CC#N (some centres unmarked) [Example 225] | 0.1 to 1000 |
| C=CC(=O)N1CCN(c2nc(OC[C@@H]3CCCN3C)nc3c2CCN(c2cccc4ccccc24)C3)CC1COC (stereo partly drawn) [Example 429, 1-(2-(methoxymethyl)-4-(2-(((S)-1-methylpyrrolidin-2-yl)methoxy)-7-(naphthalen-1-yl)-5,6,7,8-tetrahydropyrido[3,4-d]pyrimidin-4-yl)piperazin-1-yl)prop-2-en-1-one] | > 1000 |
| C=CC(=O)N1CCN(c2nc(OCCN3CCCCC3)nc3c2CCN(c2cccc4ccccc24)C3)CC1CC#N (centres unmarked) [Example 303, 2-[4-[7-(1-naphthyl)-2-[2-(1-piperidyl)ethoxy]-6,8-dihydro-5H-pyrido[3,4-d]pyrimidin-4-yl]-1-prop-2-enoyl-piperazin-2-yl]acetonitrile] | 0.1 to 1000 |
| C=CC(=O)N1CCN(c2nc(OC[C@@H]3CCCN3C)nc3c2CCN(c2cccc(OC)c2C(F)(F)F)C3)C[C@@H]1CC#N [Example 330, 2-[(2S)-4-[7-[3-methoxy-2-(trifluoromethyl)phenyl]-2-[[(2S)-1-methylpyrrolidin-2-yl]methoxy]-6,8-dihydro-5H-pyrido[3,4-d]pyrimidin-4-yl]-1-prop-2-enoyl-piperazin-2-yl]acetonitrile] | 0.1 to 1000 |

Next, values leading:

| IC50 [nM] | Structure (SMILES) |
| --- | --- |
| 0.1 to 1000 | C=CC(=O)N1CCN(c2nc(OC[C@@H]3CCCN3C)nc3c2CCN(c2c(C)c(C)cc4[nH]ncc24)C3)CC1 [Example 453, 1-[4-[7-(5,6-dimethyl-1H-indazol-4-yl)-2-[[(2S)-1-methylpyrrolidin-2-yl]methoxy]-6,8-dihydro-5H-pyrido[3,4-d]pyrimidin-4-yl]piperazin-1-yl]prop-2-en-1-one] |
| 0.1 to 1000 | C=CC(=O)N1CCN(c2nc(OC[C@@H]3CCCN3C)nc3c2CCN(c2cnccc2C2CC2)C3)C[C@@H]1CC#N [Example 352, 2-[(2S)-4-[7-(4-cyclopropyl-3-pyridyl)-2-[[(2S)-1-methylpyrrolidin-2-yl]methoxy]-6,8-dihydro-5H-pyrido[3,4-d]pyrimidin-4-yl]-1-prop-2-enoyl-piperazin-2-yl]acetonitrile] |
| 0.1 to 1000 | C=CC(=O)N1CCN(c2nc(OC[C@@H]3CCCN3C)nc3c2CCN(c2ccc(F)c4ccccc24)C3)C[C@@H]1CC#N [Example 316, 2-((S)-1-acryloyl-4-(7-(4-fluoronaphthalen-1-yl)-2-(((S)-1-methylpyrrolidin-2-yl)methoxy)-5,6,7,8-tetrahydropyrido[3,4-d]pyrimidin-4-yl)piperazin-2-yl)acetonitrile] |
| 0.1 to 1000 | C=CC(=O)N1CCN(c2nc(OC[C@@H]3CCCN3C)nc3c2CCN(c2cccc4cccc(F)c24)C3)C[C@@H]1CC#N [Example 338] |
| 0.1 to 1000 | C=CC(=O)N1CCN(c2nc(OC[C@H]3C[C@H](O)CN3C)nc3c2CCN(c2cccc4ccccc24)C3)C[C@@H]1CC#N [Example 323, 2-[(2S)-4-[2-[[(2R,4S)-4-hydroxy-1-methyl-pyrrolidin-2-yl]methoxy]-7-(1-naphthyl)-6,8-dihydro-5H-pyrido[3,4-d]pyrimidin-4-yl]-1-prop-2-enoyl-piperazin-2-yl]acetonitrile] |
| 0.1 to 1000 | C=CC(=O)N1CCN(c2nc(OCCN3CCC(F)(F)CC3)nc3c2CCN(c2cccc4cccc(Cl)c24)C3)C[C@@H]1CC#N [Example 454] |
| 0.1 to 1000 | C=CC(=O)N1CCN(c2nc(OC[C@@H]3CCCN3C)nc3c2CCN(c2cccc(C)c2C(F)(F)F)C3)CC1CC#N (some centres unmarked) [Example 265] |
| 0.1 to 1000 | C=CC(=O)N1CCN(c2nc(OCC3CCN(C4CC4)C3)nc3c2CCN(c2cc(O)cc4ccccc24)C3)CC1 (centres unmarked) [Example 190, 1-(4-(2-((1-cyclopropylpyrrolidin-3-yl)methoxy)-7-(3-hydroxynaphthalen-1-yl)-5,6,7,8-tetrahydropyrido[3,4-d]pyrimidin-4-yl)piperazin-1-yl)prop-2-en-1-one] |
| 0.1 to 1000 | C=CC(=O)N1CCN(c2nc(OCCN3CCCCC3)nc3c2CCN(c2cccc4ccccc24)C3)C[C@@H]1CC#N [Example 409, (S)-2-(1-acryloyl-4-(7-(naphthalen-1-yl)-2-(2-(piperidin-1-yl)ethoxy)-5,6,7,8-tetrahydropyrido[3,4-d]pyrimidin-4-yl)piperazin-2-yl)acetonitrile] |
